Assays:
[1] = target: T1, B1R receptor of the rat (Rattus norvegicus, UniProt P97583); experiment: Functional study on the bradykinin receptor 1 (B1R), FLIPR Ca2+ assay, rB1R cells; type: cell-based; conditions: agonist Des-Arg9-bradykinin 100 nM, % inhibition compared with the maximum achievable inhibition; for inhibition at 10 µM: CHO-K1, test substance 10 μM, read-out: B1R Antagonism, rat [10 μM] % Inhibition; for B1R Antagonism, rat [10 μM] % Inhibition: test substance 10 μM, rB1R CHO K1 cells
T1 construct: host or cells: CHO K1 cells (Chinese hamster ovary), stably transfected
T1 sequence (P97583 1-337): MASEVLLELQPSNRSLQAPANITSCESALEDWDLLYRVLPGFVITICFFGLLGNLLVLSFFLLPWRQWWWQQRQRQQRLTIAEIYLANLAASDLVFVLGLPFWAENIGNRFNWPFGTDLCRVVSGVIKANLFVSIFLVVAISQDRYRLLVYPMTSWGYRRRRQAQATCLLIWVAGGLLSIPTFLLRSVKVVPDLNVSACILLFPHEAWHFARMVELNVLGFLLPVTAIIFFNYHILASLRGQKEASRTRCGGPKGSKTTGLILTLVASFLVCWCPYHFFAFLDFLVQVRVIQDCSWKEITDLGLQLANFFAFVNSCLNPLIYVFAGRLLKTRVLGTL
Summary of the method: (§1)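 FLIPR Ca2+ read-out (Fluo-4, peak fluorescence) in stably transfected CHO K1 cells. Compounds at 10 μM, then 10 min later agonist challenge: human B1R with Lys-Des-Arg9-bradykinin 0.5 nM, rat B1R with Des-Arg9-bradykinin 100 nM; reported as % activation or % of maximal inhibition.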

[2] = target: T2, human B1R receptor (Homo sapiens, UniProt P46663); experiment: Functional study on the bradykinin receptor 1 (B1R), FLIPR Ca2+ assay, hB1R cells; type: cell-based; conditions: agonist Lys-Des-Arg9-bradykinin 0.5 nM, % inhibition compared with the maximum achievable inhibition; for inhibition at 10 µM: CHO-K1, test substance 10 μM, read-out: B1R Antagonism, human [10 μM] % Inhibition; for B1R Antagonism, human [10 μM] % Inhibition: test substance 10 μM, hB1R CHO K1 cells
T2 construct: host or cells: CHO K1 cells (Chinese hamster ovary), stably transfected
T2 sequence (P46663 1-353): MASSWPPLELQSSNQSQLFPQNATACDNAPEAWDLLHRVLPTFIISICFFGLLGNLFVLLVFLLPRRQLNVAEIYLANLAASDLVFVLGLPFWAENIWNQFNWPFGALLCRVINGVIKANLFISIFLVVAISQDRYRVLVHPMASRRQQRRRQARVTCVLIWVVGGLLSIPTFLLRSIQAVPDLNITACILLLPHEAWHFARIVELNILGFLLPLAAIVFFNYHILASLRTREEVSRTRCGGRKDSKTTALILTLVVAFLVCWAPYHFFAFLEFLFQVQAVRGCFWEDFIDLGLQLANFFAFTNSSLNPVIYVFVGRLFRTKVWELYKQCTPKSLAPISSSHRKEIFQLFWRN
Summary of the method: as §1

Row | Compound | inhibition at 10 µM [1] | inhibition at 10 µM [2] | B1R Antagonism, rat [10 μM] % Inhibition [1] | B1R Antagonism, human [10 μM] % Inhibition [2]
1 | CN1CCN(C2CCN(C(=O)COCC3CCCN3S(=O)(=O)c3c(Cl)cccc3Cl)CC2)CC1 (centres unmarked) [Example 285, 2-((1-(2,6-dichlorophenylsulfonyl)pyrrolidin-2-yl)methoxy)-1-(4-(4-methylpiperazin-1-yl)piperidin-1-yl)ethanone] | 91% | 104% | – | –
2 | COc1cc(C)c(S(=O)(=O)N2CC[C@H]2COCC(=O)N2CCN(C3CCN(C)CC3)CC2)c(C)c1 [Example 135, (S)-2-((1-(4-methoxy-2,6-dimethylphenylsulfonyl)azetidin-2-yl)methoxy)-1-(4-(1-methylpiperidin-4-yl)piperazin-1-yl)ethanone] | 98.3% | 103% | – | –
3 | Cc1cc(C)c(S(=O)(=O)N2CCCCC2COCC(=O)NCC2CCCN(Cc3ccccc3)C2)c(C)c1 (centres unmarked) [Example 12, N-(1-benzyl-piperidin-3-ylmethyl)-2-[1-(2,4,6-trimethyl-phenylsulfonyl)-piperidin-2-ylmethoxy]-acetamide] | 74.9% | 99.1% | – | –
4 | COc1cc(C)c(S(=O)(=O)N2CCCCC2COCC(=O)Nc2ccc(N3CCOCC3)cc2)c(C)c1 (centres unmarked) [Example 438, 2-((1-(4-methoxy-2,6-dimethylphenylsulfonyl)piperidin-2-yl)methoxy)-N-(4-morpholinophenyl)acetamide] | 100% | 22.1% | – | –
5 | CN1CCC(N2CCN(C(=O)COCC3CCCCN3S(=O)(=O)c3c(Cl)nc4sccn34)CC2)CC1 (centres unmarked) [Example 129, 2-((1-(6-chloroimidazo[2,1-b]thiazol-5-ylsulfonyl)piperidin-2-yl)methoxy)-1-(4-(1-methylpiperidin-4-yl)piperazin-1-yl)ethanone] | 31.2% | 0.03% | – | –
6 | COc1cc(C)c(S(=O)(=O)N2CCCCC2COCC(=O)N2CCN(c3cccc(C(F)(F)F)c3)CC2)c(C)c1 (centres unmarked) [Example 509, 2-((1-(4-methoxy-2,6-dimethylphenylsulfonyl)piperidin-2-yl)methoxy)-1-(4-(3-(trifluoromethyl)phenyl)piperazin-1-yl)ethanone] | 102% | 92.7% | – | –
7 | COc1cc(C)c(S(=O)(=O)N2CCCCC2COCC(=O)NCCc2c[nH]c3ccccc23)c(C)c1 (centres unmarked) [Example 243, N-(2-(1H-indol-3-yl)ethyl)-2-((1-(4-methoxy-2,6-dimethylphenylsulfonyl)piperidin-2-yl)methoxy)acetamide] | 80.6% | 24.8% | – | –
8 | O=C(COCC1CCCCN1S(=O)(=O)c1cccc2ccccc12)N1CCC(N2CCCCC2)CC1 (centres unmarked) [Example 235] | – | – | 83.46% | 102.3%
9 | COc1cc(C)c(S(=O)(=O)N2CCCC2COCC(=O)N2CCN(CC3CCCCC3)CC2)c(C)c1 (centres unmarked) [Example 492, 1-(4-(cyclohexylmethyl)piperazin-1-yl)-2-((1-(4-methoxy-2,6-dimethylphenylsulfonyl)pyrrolidin-2-yl)methoxy)ethanone] | 104% | 103% | – | –
10 | COc1ccc(CN2CCN(C(=O)COCC3CCCN3S(=O)(=O)c3c(Cl)cccc3Cl)CC2)cc1 (centres unmarked) [Example 451, 2-((1-(2,6-dichlorophenylsulfonyl)pyrrolidin-2-yl)methoxy)-1-(4-(4-methoxybenzyl)piperazin-1-yl)ethanone] | 99.2% | 80.7% | – | –
11 | COc1cc(C)c(S(=O)(=O)N2CCCC2COCC(=O)N2CCN(C)CC2c2ccccc2)c(C)c1 (centres unmarked) [Example 445, 2-((1-(4-methoxy-2,6-dimethylphenylsulfonyl)pyrrolidin-2-yl)methoxy)-1-(4-methyl-2-phenylpiperazin-1-yl)ethanone] | 98.6% | 102% | – | –
12 | N-(3-(1H-benzo[d]imidazol-2-yl)propyl)-2-((1-(4-methoxy-2,6-dimethylphenylsulfonyl)piperidin-2-yl)methoxy)acetamide [Example 525] | – | – | 102.31% | 15.41%

Other lines, results leading:

Row | inhibition at 10 µM [1] | inhibition at 10 µM [2] | B1R Antagonism, rat [10 μM] % Inhibition [1] | B1R Antagonism, human [10 μM] % Inhibition [2] | Compound
13 | 89.9% | 95.6% | – | – | COc1cc(C)c(S(=O)(=O)N2CCCCC2COCC(=O)NCCN2CCN(C)CC2)c(C)c1 (centres unmarked) [Example 248, 2-((1-(4-methoxy-2,6-dimethylphenylsulfonyl)piperidin-2-yl)methoxy)-N-(2-(4-methylpiperazin-1-yl)ethyl)acetamide]
14 | 101% | 103% | – | – | O=C(COCC1CCCCN1S(=O)(=O)c1c(Cl)cccc1Cl)N1CCN(CC2CCCCC2)CC1 (centres unmarked) [Example 499, 1-(4-(cyclohexylmethyl)piperazin-1-yl)-2-((1-(2,6-dichlorophenylsulfonyl)piperidin-2-yl)methoxy)ethanone]
15 | 102% | 102% | – | – | CN1CCC(N2CCN(C(=O)COCC3CCCCN3S(=O)(=O)c3cccc4ccccc34)CC2)CC1 (centres unmarked) [Example 110, 1-(4-(1-methylpiperidin-4-yl)piperazin-1-yl)-2-((1-(naphthalen-1-ylsulfonyl)piperidin-2-yl)methoxy)ethanone]
16 | 100% | 104% | – | – | COc1cc(C)c(S(=O)(=O)N2CCCCC2COCC(=O)N(C2CC2)C2CCN(Cc3ccccc3)CC2)c(C)c1 (centres unmarked) [Example 342, N-(1-benzylpiperidin-4-yl)-N-cyclopropyl-2-((1-(4-methoxy-2,6-dimethylphenylsulfonyl)piperidin-2-yl)methoxy)acetamide]
17 | 104% | 79.4% | – | – | O=C(COCC1CCCN1S(=O)(=O)c1c(Cl)cccc1Cl)N1CCN(Cc2ccc(Cl)c(Cl)c2)CC1 (centres unmarked) [Example 357, 1-(4-(3,4-dichlorobenzyl)piperazin-1-yl)-2-((1-(2,6-dichlorophenylsulfonyl)pyrrolidin-2-yl)methoxy)ethanone]
18 | 103% | 103% | – | – | O=C(COCC1CCCCN1S(=O)(=O)c1c(Cl)cccc1Cl)NCc1ccc(CN2CCCC2)cc1 (centres unmarked) [Example 313, 2-((1-(2,6-dichlorophenylsulfonyl)piperidin-2-yl)methoxy)-N-(4-(pyrrolidin-1-ylmethyl)benzyl)acetamide]
19 | 88% | 102% | – | – | COc1cc(C)c(S(=O)(=O)N2CCCCC2COCC(=O)N2CCN(C)CC2)c(C)c1 (centres unmarked) [Example 242, 2-((1-(4-methoxy-2,6-dimethylphenylsulfonyl)piperidin-2-yl)methoxy)-1-(4-methylpiperazin-1-yl)ethanone]
20 | 98.8% | 18.7% | – | – | COc1cc(C)c(S(=O)(=O)N2CCCCC2COCC(=O)Nc2nccc3ccccc23)c(C)c1 (centres unmarked) [Example 370, N-(isoquinolin-1-yl)-2-((1-(4-methoxy-2,6-dimethylphenylsulfonyl)piperidin-2-yl)methoxy)acetamide]
21 | 99.3% | 66.1% | – | – | COc1cc(C)c(S(=O)(=O)N2CCCCC2COCC(=O)NCCN(C)C)c(C)c1 (centres unmarked) [Example 259, N-(2-(dimethylamino)ethyl)-2-((1-(4-methoxy-2,6-dimethylphenylsulfonyl)piperidin-2-yl)methoxy)acetamide]
22 | 103% | 20.1% | – | – | COc1cc(C)c(S(=O)(=O)N2CCCCC2COCC(=O)N(Cc2ccc(N(C)C)cc2)C(C)C)c(C)c1 (centres unmarked) [Example 367, N-(4-(dimethylamino)benzyl)-N-isopropyl-2-((1-(4-methoxy-2,6-dimethylphenylsulfonyl)piperidin-2-yl)methoxy)acetamide]
23 | – | – | 82.89% | 53.64% | COc1ccc(S(=O)(=O)N2Cc3ccccc3CC2COCC(=O)N2CCC(CCN3CCCCC3)CC2)cc1 (centres unmarked) [Example 69]
24 | 99.3% | 99.9% | – | – | COc1cc(C)c(S(=O)(=O)N2CCCCC2COCC(=O)N2CCC(c3ccncc3)C2)c(C)c1 (centres unmarked) [Example 238, 2-((1-(4-methoxy-2,6-dimethylphenylsulfonyl)piperidin-2-yl)methoxy)-1-(3-(pyridin-4-yl)pyrrolidin-1-yl)ethanone]
25 | 98.2% | 102% | – | – | COc1cc(C)c(S(=O)(=O)N2CCCCC2COCC(=O)N2CCN(C3CCC(C(F)(F)F)CC3)CC2)c(C)c1 (centres unmarked) [Example 134, 2-((1-(4-methoxy-2,6-dimethylphenylsulfonyl)piperidin-2-yl)methoxy)-1-(4-(4-(trifluoromethyl)cyclohexyl)piperazin-1-yl)ethanone]

— patent US8435978B2, “Substituted sulfonamide compounds” (Gruenenthal GmbH, priority 2006, dated 2013)
